Legend:
Opiate μ (OP3, MOP) = Opiate μ (OP3, MOP) (Homo sapiens, UniProt P35372); assay: Lead Profiling Screen, Eurofins Panlabs; assay type: binding; conditions: hum, read-out: % inh at 10 μM
[1] = IV plasma-brain level determination (PBL) in rat; assay type: in vivo; conditions: male, Sprague-Dawley, brain and plasma, SD rat, 0.2 mg/kg IV
CYP 3A4 = biological target: T1, CYP 3A4 (Homo sapiens, UniProt P08684); assay: P450 inhibition in pooled human liver microsomes; assay type: in vitro ADME; conditions: pooled HLM, NADPH, CYP-specific probe substrates; listed as VU6043653
T1 construct: from tissue; host or cells: pooled human liver microsomes (per the earlier reading)

Sodium Channel, Site 2 = assay: Lead Profiling Screen, Eurofins Panlabs; assay type: binding; conditions: Site 2, rat
[2] = biological target: Platelet Activating Factor (PAF) (Homo sapiens, UniProt P25105); assay: Lead Profiling Screen, Eurofins Panlabs; assay type: binding; conditions: hum, read-out: % inh at 10 μM
human mGlu4 = biological target: T2, human mGlu4 (Homo sapiens, UniProt Q14833); assay: mGlu selectivity, calcium mobilization assay; assay type: cell-based
T2 construct: expressed in transfected cells
Procedure: (§1) the presence of 5% CO2, the dye solutions were removed and replaced with assay buffer using a microplate washer, leaving 20 μL of assay buffer in the cell plate. The compound, agonist, and cell plates were placed inside the Functional Drug Screening System (FDSS 7000 or uCell, Hamamatsu, Japan) to measure the calcium flux. Assays were run at 37 °C. A triple add protocol was used to measure Ca kinetics. Briefly, after establishment of a fluorescence baseline for 2 seconds (excitation, 480 nm; emission, 530 nm), 20 µL of test compound was added to the cells and the response was measured for 140 seconds. This was followed by the addition of 10 µL (5X) of an EC20 concentration of Glu agonist, and the response of the cells was measured for 125 seconds. A third addition occurred by adding 12 uL (5X) of an EC80 concentration of Glu agonist and the response of the cells was measured for 90 seconds. […] Calcium fluorescence was recorded as fold over basal fluorescence and raw data were normalized to the maximal response to Glu agonist (ECMax). Compound-evoked decreases in calcium response in the presence of Glu EC80 agonist were determined as inhibition activity, and potency (IC50) and maximum inhibition responses (% GluMin) of compounds were determined using a four-parameter logistical equation using GraphPad Prism (La Jolla, CA) or the Dotmatics software platform (Woburn, MA) : […]

human mGlu1 = biological target: T3, human mGlu1 (Homo sapiens, UniProt Q13255); assay: mGlu selectivity, calcium mobilization assay; assay type: cell-based
T3 construct: expressed in transfected cells; host or cells: TREx-293, tetracycline-inducible
Procedure: as §1

Dopamine D1 = Dopamine D1 (Homo sapiens, UniProt P21728); assay: Lead Profiling Screen, Eurofins Panlabs; assay type: binding; conditions: Dopamine D1, hum, read-out: % inh at 10 μM
From the text: (§2) Nonetheless, as a non-aryl/heterobiaryl acetylene mGlu5 NAM with an encouraging in vivo rodent PK profile, we wished to further assess VU6043653 as a novel chemotype. Therefore, we compared metabolites in multiple species to better understand species differences in clearance and metabolism. […] Consistent with the high plasma clearance observed in dogs, high turnover was observed more so in dog hepatocytes than any other species tested (see the Supporting Information for additional details and results). To further evaluate our novel chemotype, the off-target and safety/toxicity profiles for this compound were further investigated.
(§3) Table S2. Lead Profiling Screen – Eurofins Panlabs for VU6043653.

Dopamine D2S = Dopamine D2S (Homo sapiens, UniProt P14416); assay: Lead Profiling Screen, Eurofins Panlabs; assay type: binding; conditions: hum, read-out: % inh at 10 μM
From the text: as §2, §3

Glucocorticoid = Glucocorticoid (Homo sapiens, UniProt P04150); assay: Lead Profiling Screen, Eurofins Panlabs; assay type: binding; conditions: hum, read-out: % inh at 10 μM
From the text: as §2, §3

Histamine H2 = Histamine H2 (Homo sapiens, UniProt P25021); assay: Lead Profiling Screen, Eurofins Panlabs; assay type: binding; conditions: Histamine H2, hum, read-out: % inh at 10 μM
From the text: as §2, §3

Bradykinin B1 = Bradykinin B1 (Homo sapiens, UniProt P46663); assay: Lead Profiling Screen, Eurofins Panlabs; assay type: binding; conditions: Bradykinin B1, hum, read-out: % inh at 10 μM
From the text: as §2, §3

Adrenergic α1B = Adrenergic α1B (Homo sapiens, UniProt P35368); assay: Lead Profiling Screen, Eurofins Panlabs; assay type: binding; conditions: hum, read-out: % inh at 10 μM
From the text: as §2, §3

Potassium Channel [KATP] = assay: Lead Profiling Screen, Eurofins Panlabs; assay type: binding, hamster; conditions: ham
[3] = In vivo dog pharmacokinetics; conditions: Dog (beagle)
CYP 2D6 = biological target: T4, CYP 2D6 (Homo sapiens, UniProt P10635); assay: P450 inhibition in pooled human liver microsomes; assay type: in vitro ADME; conditions: pooled HLM, NADPH, CYP-specific probe substrates; listed as VU6043653
T4 construct: from tissue; host or cells: pooled human liver microsomes (per the earlier reading)

Melatonin MT1 = Melatonin MT1 (Homo sapiens, UniProt P48039); assay: Lead Profiling Screen, Eurofins Panlabs; assay type: binding; conditions: Melatonin MT1, hum, read-out: % inh at 10 μM

T4 sequence (P10635 whole entry): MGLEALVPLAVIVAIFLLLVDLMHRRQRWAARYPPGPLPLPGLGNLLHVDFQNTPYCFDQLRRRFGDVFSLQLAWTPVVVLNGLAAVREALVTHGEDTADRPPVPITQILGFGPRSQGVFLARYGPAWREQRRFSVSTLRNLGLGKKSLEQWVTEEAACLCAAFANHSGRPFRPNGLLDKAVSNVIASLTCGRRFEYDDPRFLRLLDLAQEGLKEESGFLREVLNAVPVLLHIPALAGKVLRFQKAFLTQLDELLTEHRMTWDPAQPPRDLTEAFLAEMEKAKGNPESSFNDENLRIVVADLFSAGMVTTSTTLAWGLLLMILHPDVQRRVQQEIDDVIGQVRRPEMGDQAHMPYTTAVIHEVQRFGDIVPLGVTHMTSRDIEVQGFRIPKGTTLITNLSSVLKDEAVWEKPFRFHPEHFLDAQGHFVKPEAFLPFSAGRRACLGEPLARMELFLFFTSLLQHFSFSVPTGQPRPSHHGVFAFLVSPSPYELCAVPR
T1 sequence (P08684 whole entry): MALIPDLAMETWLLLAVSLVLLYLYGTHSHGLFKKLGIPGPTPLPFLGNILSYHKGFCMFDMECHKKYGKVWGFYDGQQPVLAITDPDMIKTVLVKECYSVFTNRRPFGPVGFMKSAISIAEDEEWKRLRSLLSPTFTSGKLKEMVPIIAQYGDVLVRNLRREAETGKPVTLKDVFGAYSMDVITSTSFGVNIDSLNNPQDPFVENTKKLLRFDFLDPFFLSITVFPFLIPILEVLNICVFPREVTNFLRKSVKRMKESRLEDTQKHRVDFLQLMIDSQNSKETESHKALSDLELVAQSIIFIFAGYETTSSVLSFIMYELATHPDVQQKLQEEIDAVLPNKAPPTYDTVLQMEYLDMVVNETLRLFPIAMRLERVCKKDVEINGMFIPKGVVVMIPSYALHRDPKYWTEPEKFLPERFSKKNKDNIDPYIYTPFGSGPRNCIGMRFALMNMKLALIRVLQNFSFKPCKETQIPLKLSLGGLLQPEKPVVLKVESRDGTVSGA
Dopamine D1, sequence (P21728 whole entry): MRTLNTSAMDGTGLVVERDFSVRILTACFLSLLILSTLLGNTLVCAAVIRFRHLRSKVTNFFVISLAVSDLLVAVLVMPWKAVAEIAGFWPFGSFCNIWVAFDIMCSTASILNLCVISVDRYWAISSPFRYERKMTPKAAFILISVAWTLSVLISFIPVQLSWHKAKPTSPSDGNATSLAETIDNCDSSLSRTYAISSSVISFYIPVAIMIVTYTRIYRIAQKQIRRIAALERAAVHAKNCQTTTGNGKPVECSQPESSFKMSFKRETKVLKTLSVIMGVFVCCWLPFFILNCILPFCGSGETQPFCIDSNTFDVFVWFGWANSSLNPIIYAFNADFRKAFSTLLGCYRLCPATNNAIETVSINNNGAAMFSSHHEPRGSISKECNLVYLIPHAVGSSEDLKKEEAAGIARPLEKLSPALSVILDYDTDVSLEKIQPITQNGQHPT
Platelet Activating Factor (PAF), sequence (P25105 whole entry): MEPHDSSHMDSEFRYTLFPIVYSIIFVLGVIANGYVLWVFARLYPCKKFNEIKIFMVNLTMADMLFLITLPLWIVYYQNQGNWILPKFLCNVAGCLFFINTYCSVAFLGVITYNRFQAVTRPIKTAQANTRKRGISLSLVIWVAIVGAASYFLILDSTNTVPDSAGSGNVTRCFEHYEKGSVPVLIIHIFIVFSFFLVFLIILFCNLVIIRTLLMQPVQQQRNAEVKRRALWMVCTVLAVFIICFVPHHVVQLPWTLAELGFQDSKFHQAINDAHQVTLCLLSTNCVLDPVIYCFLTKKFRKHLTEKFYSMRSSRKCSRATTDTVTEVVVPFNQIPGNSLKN
Opiate μ (OP3, MOP), sequence (P35372 whole entry): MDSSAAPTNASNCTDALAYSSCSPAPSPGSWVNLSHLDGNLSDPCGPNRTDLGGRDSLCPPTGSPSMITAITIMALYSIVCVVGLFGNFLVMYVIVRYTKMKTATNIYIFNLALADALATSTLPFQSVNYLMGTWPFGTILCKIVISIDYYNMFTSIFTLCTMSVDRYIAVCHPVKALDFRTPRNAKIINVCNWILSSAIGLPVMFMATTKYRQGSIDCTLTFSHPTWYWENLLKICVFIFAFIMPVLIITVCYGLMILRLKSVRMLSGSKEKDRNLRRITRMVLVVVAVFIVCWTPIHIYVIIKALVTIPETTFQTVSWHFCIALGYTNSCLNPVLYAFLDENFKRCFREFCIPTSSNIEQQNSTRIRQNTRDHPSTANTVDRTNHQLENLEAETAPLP
Dopamine D2S, sequence (P14416 1-414 isoform P14416-2): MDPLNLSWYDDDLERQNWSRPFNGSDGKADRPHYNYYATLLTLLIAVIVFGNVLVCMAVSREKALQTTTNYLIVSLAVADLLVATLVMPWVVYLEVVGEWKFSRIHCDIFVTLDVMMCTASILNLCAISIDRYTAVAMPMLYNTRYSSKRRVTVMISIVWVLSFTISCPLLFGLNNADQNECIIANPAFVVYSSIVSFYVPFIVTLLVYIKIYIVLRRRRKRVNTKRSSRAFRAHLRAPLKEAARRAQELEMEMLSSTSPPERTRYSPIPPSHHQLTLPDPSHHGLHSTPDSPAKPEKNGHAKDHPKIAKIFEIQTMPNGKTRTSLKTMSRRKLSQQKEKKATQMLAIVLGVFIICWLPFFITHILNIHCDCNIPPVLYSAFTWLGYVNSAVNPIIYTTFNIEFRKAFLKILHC
T3 sequence (Q13255 19-1194): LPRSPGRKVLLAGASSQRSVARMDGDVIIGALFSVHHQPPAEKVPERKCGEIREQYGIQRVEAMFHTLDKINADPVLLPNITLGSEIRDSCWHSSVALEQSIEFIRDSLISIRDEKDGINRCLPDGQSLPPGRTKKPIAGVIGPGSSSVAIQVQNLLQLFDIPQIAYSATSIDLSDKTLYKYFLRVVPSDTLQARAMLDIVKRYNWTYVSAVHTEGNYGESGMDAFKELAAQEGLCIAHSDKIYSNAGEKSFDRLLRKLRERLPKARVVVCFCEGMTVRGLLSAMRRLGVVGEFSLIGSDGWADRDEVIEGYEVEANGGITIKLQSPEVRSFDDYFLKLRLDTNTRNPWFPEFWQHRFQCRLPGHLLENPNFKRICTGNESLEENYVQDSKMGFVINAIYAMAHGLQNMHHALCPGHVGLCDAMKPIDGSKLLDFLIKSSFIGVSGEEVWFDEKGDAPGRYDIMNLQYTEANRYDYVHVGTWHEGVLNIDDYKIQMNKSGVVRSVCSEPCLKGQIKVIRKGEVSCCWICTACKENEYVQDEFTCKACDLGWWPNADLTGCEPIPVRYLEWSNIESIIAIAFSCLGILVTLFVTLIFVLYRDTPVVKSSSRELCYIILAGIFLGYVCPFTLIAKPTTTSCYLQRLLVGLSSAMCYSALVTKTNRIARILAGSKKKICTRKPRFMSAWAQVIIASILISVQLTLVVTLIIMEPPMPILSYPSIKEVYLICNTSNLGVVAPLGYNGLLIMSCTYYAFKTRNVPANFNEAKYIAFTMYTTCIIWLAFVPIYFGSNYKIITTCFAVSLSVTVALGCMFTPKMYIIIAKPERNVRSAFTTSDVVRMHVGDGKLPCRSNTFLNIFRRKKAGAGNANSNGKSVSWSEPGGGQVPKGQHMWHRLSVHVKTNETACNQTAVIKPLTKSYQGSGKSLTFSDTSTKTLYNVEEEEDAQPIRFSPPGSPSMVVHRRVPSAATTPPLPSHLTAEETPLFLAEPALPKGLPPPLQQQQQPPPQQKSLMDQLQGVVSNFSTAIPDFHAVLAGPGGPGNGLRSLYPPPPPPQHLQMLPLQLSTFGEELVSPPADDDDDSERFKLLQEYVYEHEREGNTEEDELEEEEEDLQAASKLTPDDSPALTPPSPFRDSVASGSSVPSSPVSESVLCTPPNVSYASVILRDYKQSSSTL
Glucocorticoid, sequence (P04150 whole entry): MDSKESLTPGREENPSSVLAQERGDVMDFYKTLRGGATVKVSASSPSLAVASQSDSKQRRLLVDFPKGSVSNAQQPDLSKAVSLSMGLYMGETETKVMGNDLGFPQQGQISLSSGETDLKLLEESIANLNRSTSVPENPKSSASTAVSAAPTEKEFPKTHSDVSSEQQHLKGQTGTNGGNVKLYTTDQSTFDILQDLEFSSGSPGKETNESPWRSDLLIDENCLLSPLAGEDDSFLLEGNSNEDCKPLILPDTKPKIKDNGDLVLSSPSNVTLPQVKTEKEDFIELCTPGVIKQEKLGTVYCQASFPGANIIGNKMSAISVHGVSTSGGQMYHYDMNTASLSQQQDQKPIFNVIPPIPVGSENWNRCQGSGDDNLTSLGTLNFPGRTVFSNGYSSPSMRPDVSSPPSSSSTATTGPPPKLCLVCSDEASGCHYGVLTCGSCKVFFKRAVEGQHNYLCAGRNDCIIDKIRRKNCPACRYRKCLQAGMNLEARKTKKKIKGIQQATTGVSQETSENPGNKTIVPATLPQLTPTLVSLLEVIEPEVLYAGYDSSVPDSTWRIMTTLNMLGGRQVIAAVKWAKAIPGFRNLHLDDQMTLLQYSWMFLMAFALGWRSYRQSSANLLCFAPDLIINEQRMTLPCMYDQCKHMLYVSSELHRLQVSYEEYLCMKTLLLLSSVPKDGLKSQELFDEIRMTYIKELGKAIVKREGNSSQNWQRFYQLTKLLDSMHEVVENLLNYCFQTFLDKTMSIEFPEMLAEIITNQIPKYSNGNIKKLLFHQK
Histamine H2, sequence (P25021 whole entry): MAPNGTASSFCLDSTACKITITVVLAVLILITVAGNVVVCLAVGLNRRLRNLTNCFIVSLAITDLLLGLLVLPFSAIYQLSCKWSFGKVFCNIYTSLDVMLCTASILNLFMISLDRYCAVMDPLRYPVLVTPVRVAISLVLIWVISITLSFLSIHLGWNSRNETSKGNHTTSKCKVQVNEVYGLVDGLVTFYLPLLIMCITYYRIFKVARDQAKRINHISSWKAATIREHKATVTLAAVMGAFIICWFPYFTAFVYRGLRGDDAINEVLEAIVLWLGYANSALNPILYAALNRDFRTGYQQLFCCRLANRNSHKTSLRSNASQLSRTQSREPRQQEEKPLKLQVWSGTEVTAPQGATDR

`Cc1cc(Oc2cnn(C)c2)cc(C(=O)Nc2ccc(F)cn2)n1` [22iA] showed an inhibition at 10 µM (Opiate μ (OP3, MOP)) of 9%, a Kp at 0.25 h ([1]; total brain-to-plasma partition ratio) of 1.68 and a Kp uu at 0.25 h ([1]; unbound brain-to-plasma partition ratio) of 0.34. The IC50 (CYP 3A4) was ≥ 30 µM, the “% inh at 10 μM” value (Sodium Channel, Site 2) was 25% and the inhibition at 10 µM [2] was 3%. The “IC50, human mGlu4” value (human mGlu4) was “inactive”, the “IC50, human mGlu1” value (human mGlu1) was “inactive” and the inhibition at 10 µM (Dopamine D1) was -2%. The inhibition at 10 µM (Dopamine D2S) was -10%, the inhibition at 10 µM (Glucocorticoid) was 10% and the inhibition at 10 µM (Histamine H2) was -4%. The inhibition at 10 µM (Bradykinin B1) was 4%, the inhibition at 10 µM (Adrenergic α1B) was 3% and the “% inh at 10 μM” value (Potassium Channel [KATP]) was 2%. For the same molecule, the CLp ([3]; IV 0.5 mg/kg) was 2.28 L/h/kg, the MRT ([3]; IV 0.5 mg/kg) was 1.41 h and the Vss ([3]; IV 0.5 mg/kg) was 3.2 L/kg. The t1/2 ([3]; IV 0.5 mg/kg) was 1.55 h, the “AUC0-∞” value ([3]; PO 3.0 mg/kg) was 0.264 µg·h/mL and the Cmax ([3]; PO 3.0 mg/kg) was 0.0703 µg/mL. The Tmax ([3]; PO 3.0 mg/kg) was 0.67 h, the “%F” value ([3]; PO 3.0 mg/kg, oral bioavailability) was 20% and the IC50 (CYP 2D6) was ≥ 30 µM. It also gave an inhibition at 10 µM (Melatonin MT1) of 15%.

From article PMC11647725, “Discovery of 4-(5-Membered)Heteroarylether-6-methylpicolinamide Negative Allosteric Modulators of Metabotropic Glutamate Receptor Subtype 5” (ACS Medicinal Chemistry Letters, 2024)
